Reference: patent publication US9896659B2, “Methods, kits, and compositions for stem cell self-renewal” (STOWERS INSTITUTE FOR MEDICAL RESEARCH, priority 2011, dated 2018)

Tests used:
[1] = tested on: lethally irradiated recipients; test: Serial transplantation of cultured MNCs without rescue/competitor cells; type: in vivo, mouse
Procedure: FIGS. 27A-C show ex vivo expansion of normal, long-term repopulating HSC. MNCs containing a known quantity of LSK Flk2^− cells were cultured for 14 days with and without CHIR99021. The cultured progeny of MNCs containing a pre-culture dosage of 0.1, 0.3 or 1.0 LSK Flk2^− cells were transplanted into lethally irradiated recipients along with 1×10^5 rescue/competitor cells (n=10 for each of 6 groups). Peripheral blood was analyzed at 16 weeks post-transplant and competitive repopulating unit (CRU) frequency was determined using L-Calc software (Stem Cell Technologies, Inc.) based on Poisson statistics (Zhang, C. C. & Lodish, H. F. Murine hematopoietic stem cells change their surface phenotype during ex vivo expansion. Blood, Vol. 105, pages 4314-4320 (2005); Miller, C. L. & Eaves, C. J. Expansion in vitro of adult murine hematopoietic stem cells with transplantable lympho-myeloid reconstituting ability. Proceedings of the National Academy of Sciences of the United States of America, Vol. 94, pages 13648-13653 (1997)). […] Fresh MNCs containing 5 or 500 LSK Flk2^− cells, or the progeny of MNCs containing 5 LSK Flk2^− cells cultured for 14 days with and without CHIR99021, were transplanted into lethally irradiated recipients without rescue/competitor cells. At 16-17 weeks post-transplant, bone marrow isolated from 1° recipients was transplanted into 2° recipients and, at 16-17 weeks post-secondary transplant, from 2° into 3° recipients at a dosage of 1×10^6 cells per mouse. Peripheral blood was analyzed for percent donor repopulation at 16 weeks post-1°, 2°, and 3° transplant (upper panels) and percent mature donor-derived B, T and myeloid cells (lower panels).
For competitive repopulation assays, 1×10^5 bone marrow cells congenic with the host (CD45.1^+) were included per mouse. 100 μl of cultured cells or cells freshly isolated and quantified in the same manner were transplanted into lethally irradiated (10 Grays, single dose) Protein tyrosine phosphatase, receptor type, C (Ptprc or CD45.1) recipient mice through the tail vein using an insulin syringe (29 gauge). Mice were placed on Batril® water (Bayer Healthcare, LLC, Shawnee Mission, Kans.) 3 days prior to irradiation which continued for 2 weeks post-irradiation. Repopulation was measured every 4 weeks post-transplant by collection of peripheral blood, red blood cell lysis and staining of CD45.1 (recipient) vs. CD45.2 (donor) engraftment. […] Multi-lineage reconstitution was determined by CD3, B220 (for T and B lymphoid, respectively) and Gr1, Mac-1 (for myeloid) gating on donor (CD45.2^+) cells. […] Bone marrow cells were counted and transplanted as above at a dosage of 1×10^6 per mouse. […]

[2] = tested on: lethally irradiated (10 Gy) CD45.1^+ recipient mice; test: Transplantation of cultured sorted LSK Flk2^− cells into lethally irradiated recipients, donor engraftment; type: in vivo, mouse; settings: 28-day cultures, 1000 re-sorted LSK Flk2^− cells + 2×10^5 competitor cells; peripheral blood 4 weeks post-transplant
Description: Cells were harvested from the wells prior to transplantation by pipetting up and down several times before transferring to a fresh tube. Residual was then collected by adding more media and repeating. Cells were washed in DMEM (Invitrogen, Cat. No. 31053) without phenol red and added to the appropriate number of whole bone marrow rescue cells from a congenic donor (for 200,000 rescue cells+1,000 re-sorted LSK Flk2^− cells (FIGS. 3F-H) or the non-adherent product of 10 days culture of 100 LSK Flk2^− cultured cells (FIGS. 3I-K) per mouse as indicated). […]
Repopulation was measured at 4 weeks post-transplant by collection of peripheral blood, red blood cell lysis, and staining of CD45.1 (recipient) compared to CD45.2 (donor) engraftment using antibodies purchased from eBiosciences (FITC conjugated CD45.2 (Cat. No. 11-0454-85) and PE-Cy5 conjugated CD45.1 (Cat. No. 15-0453-82)). […] Multi-lineage reconstitution was determined by CD3, B220 (for lymphoid) and Gr1, Mac-1 (for myeloid), as described above.
Cells cultured for 28 days in (1) media, (2) media+BpV(pic), (3) media+CHIR99021 and (4) media+CHIR99021 (1 μM)+BpV(pic) (200 nM) were re-sorted for LSK Flk2^− cells. […] At 4 weeks post-transplant, peripheral blood was analyzed for donor (FIG. 3G) and multi-lineage (FIG. 3H) engraftment. […]

[3] = tested on: LSK Flk2^− cells; test: Ex vivo culture of sorted LSK Flk2^− cells with GSK-3β and PTEN inhibitors, expansion by FACS; type: cell-based, mouse
Procedure: LSK or LSK Flk2^− cells were sorted into 96-well U-bottom tissue culture plates at 100 cells/well with 200 μl media/well. Cells were incubated at 37° C., 5% O2, 5% CO2 (balance N2) for the indicated number of days. One-half total volume of media (see Table 1, below for the base media) was carefully pipetted from the top and replaced with fresh media every other day.
One hundred LSK Flk2^− cells were sorted from wild-type (C57Bl/6) mice and cultured in (1) media, (2) media+1 μM CHIR99021 (a GSK-3β inhibitor, a gift from Dr. Sheng Ding), (3) media+200 nM Dipotassium Bis-peroxo(picolinato)oxovanadate (BpV(pic), a PTEN inhibitor, available from Calbiochem, Cat. No. 203705), (4) media+1 μM CHIR99021+200 nM BpV(pic), (5) media+200 nM Shikonin (also a PTEN inhibitor, available from Calbiochem, Cat. No. 565850), and (6) media+200 nM Shikonin+1 μM CHIR99021. (FIGS. 3B-C). Cells were cultured as described above. Cells were examined at 17 days of culture (FIG. 3B, original magnification 100×) and 23 days (FIG. 3C, original magnification 40×).
LSK Flk2^− cells at 28 days culture in the indicated media conditions were examined (FIG. 3D, original magnification 200×).
FACS analysis of 28 day LSK Flk2^− cells cultured in media+BpV(pic)+CHIR99021 (FIG. 3E) was performed. Cells were pre-gated on live, lineage negative cells.
Fold expansion of LSK Flk2^− cells after 28 days culture in (1) media, (2) media+BpV(pic), (3) media+CHIR99021, and (4) media+CHIR99021+BpV(pic) were analyzed.
Cells cultured for 9 days in (1) media, (2) media+BpV(pic) (200 nM), (3) media+CHIR99021 (100 nM), and (4) media+CHIR99021 (100 nM)+BpV(pic) (200 nM) were re-sorted for LSK Flk2^− cells, and fold expansion of LSK Flk2^− cells after 9 days culture in the indicated conditions was determined (FIG. 3I).
FACS analysis was performed on 9 day LSK Flk2^− cells cultured in media+BpV(pic) (200 nM)+CHIR99021 (100 nM) (FIG. 3J). Cells were pre-gated on live, lineage negative cells.

Cc1c[nH]c(-c2cnc(NCCNc3ccc(C#N)cn3)nc2-c2ccc(Cl)cc2Cl)n1 [CHIR99021]
Dose of fresh, unexpanded cells giving equivalent long-term repopulation ([1]; 16 weeks post-secondary transplantation, 5 versus 500 putative HSCs): 100 fold
Repopulation of tertiary recipients ([1]; 16 weeks post-tertiary transplant, versus 100× uncultured cells): equivalent levels of repopulation with no statistical difference between the two groups
Survival of tertiary recipients ([1]; Kaplan-Meier, FIG. 27C): survival rates similar to tertiary recipients of 100× uncultured cells
Donor reconstitution at 16 weeks post-secondary transplant ([1]; secondary lethally-irradiated recipients, 1×10^6 bone marrow cells): 90.6±4.8%
Mice showing >1% engraftment [2]: 4/8
Expansion of LSK cells compared to control (photographs) ([3]; 17 and 23 days culture, 1 μM CHIR99021, 200 nM BpV(pic)): greater expansion of LSK cells
Expansion of LSK Flk2^− cells compared to media without inhibitor ([3]; 28 days culture): significant expansion
